# Data as given in patent US20090324624A1, “Chitin micro-particles as an adjuvant” (priority 2006, published 2009).
# Experiments:
# Type in all cases: cell-based, mouse
# [1] = test system: Mac-1
# [2] = test system: Toll-like receptor 4 (TLR4); assay: Surface expression of MØ antigens, cytometry: TLR4; details: 5 mM MBCD, 1 hr at 37°; 2nd antibody control 7.0
# [3] = test system: Fcγ receptor II/III (FcγR); assay: Surface expression of MØ antigens, cytometry: FcγR; details: 5 mM MBCD, 1 hr at 37°
# Protocol: For evaluation of phagocytosis, MØ were incubated with 100 μg/ml FITC-chitin particles at 37° C. for 20 or 40 min. Fluorescence of unphagocytosed FITC-chitin was quenched with 50 mM acetate-buffered saline (pH 4.5) containing 2 mg/ml trypan blue, and the fluorescence intensity of MØ with intracellular FITC-chitin particles was measured cytometrically. The presence of intracellular FITC-chitin particles was further confirmed by fluorescence microscopy (Provis AX70 Microscope with MagnaFire, Olympus, Center Valley, Pa.). Expression of F4/80, Mac-1, FcγR, SR-A, TLR4, or MR on MØ was determined cytometrically.
# The effect of cholesterol depletion on expression of the selected MØ surface antigens F4/80, Mac-1, FcγR, SR-A, TLR4, and MR was determined. […] The expression of TLR4 and MR were not altered by MBCD. The values for mean fluorescence intensity were consistent with the effects of MBCD on the expression of MØ antigens (Table 3). Therefore, MBCD at 5 mM or less was used for further experiments. All studies of chitin stimulation in the presence of MBCD were terminated within 6 h.
# [4] = test system: COX-2; assay: COX-2 expression and PGE2 release by MBCD- or saline-treated MØ
# [5] = test system: RAW 264.7 MØ; assay: TNF-α production by MBCD- or saline-treated MØ (ELISA); details: for increase in TNF-α production in response to chitin particles: 1 mM MBCD
# [6] = test system: scavenger receptor A (SR-A); assay: Surface expression of MØ antigens, cytometry: SR-A; details: 5 mM MBCD, 1 hr at 37°
# [7] = test system: RAW 264.7 MØ; assay: Cell-surface binding of FITC-chitin particles; details: MBCD-treated vs saline-treated MØ
# Protocol: For chitin binding and phagocytosis assays, 1-10 μm chitin particles were labeled with fluorescein isothiocyanate (FITC). Particles (10 mg) and FITC (0.1 mg) were mixed and incubated in 0.1 M NaHCO3 at 22° C. for 2 h. Glycine (final 1 M) was added to bind free FITC, after which labeled particles were washed and suspended in saline at 10 mg/ml. To assess cell-surface binding of chitin, MØ were incubated with 100 μg/ml FITC-chitin particles on ice for 30 min. Free particles were removed by washing three times, and cellular fluorescence was measured cytometrically (BD FACSCalibur system with CELL Quest™ acquisition plus analysis program; Becton-Dickinson Immunocytometry Systems, San Jose, Calif.). To confirm that MØ binding to chitin particles was not altered by FITC, an excess of unlabeled particles (1,000 μg/ml) was used to compete with FITC-chitin.
# It was also determined whether cholesterol depletion modifies MØ binding and internalization of FITC-chitin microparticles. […] Internalization of FITC-chitin particles at 37° C. was analyzed following quenching of unphagocytosed FITC-chitin. The magnitude of phagocytosis is similar for MBCD- and saline-treated MØ at 20 min: 12 and 12%, respectively.
# [8] = test system: chitin phagosome-associated p38 and ERK1/2; assay: Phagosomal (chitin particle-associated) MAPK phosphorylation; details: 10, 20 and 40 min
# Protocol: FIG. 14 is a series of photographs of gels showing Phagosomal localization of MAPK proteins. MBCD- and saline-treated MØ were stimulated with 100 μg/ml 1-10 μm chitin particles at 37° C. for 10, 20 or 40 min. Chitin particle-associated proteins were isolated and extracted as described in Example 3. Particle-associated proteins derived from 2×10^6 MØ as well as whole cell proteins were separated on SDS-11% polyacrylamide gel and electroblotted to PVDF membrane. The data shown are representative of two independent experiments.
# MBCD- or saline-treated MØ (2×10^6/ml) were stimulated with 100 μg/ml 1-10 μm chitin particles at 37° C. for 10, 20, or 40 min, washed with saline, suspended in homogenization buffer (50 mM Tris-HCl, pH 7.5, 0.32 M sucrose, 10 mM NaF, 1 mM Na3VO4, 5 mM EDTA, 1:500 protease inhibitor cocktail [Sigma]), and homogenized by sonication (20 s). […] Total and phosphorylated p38 and ERK1/2 as well as lysosome-associated membrane protein-1 (LAMP-1) were detected by western blotting with specific antibodies as described above. […]
# The extent of phosphorylation of MAPK associated with intracellular chitin particles in MBCD-treated and saline-treated MØ was determined. […] MAPKs p38 and ERK1/2 and the respective phosphorylated forms were detected in the particle-associated fractions at 10, 20 and 40 min (FIG. 14). […] Phosphorylated JNK was not detected in the particle-associated fraction.
# [9] = test system: F4/80; assay: Surface expression of MØ antigens, cytometry: F4/80; details: 5 mM MBCD, 1 hr at 37°
# [10] = test system: mannose receptor (MR); assay: Surface expression of MØ antigens, cytometry: MR; details: 5 mM MBCD, 1 hr at 37°; 2nd antibody control 7.0
# [11] = test system: IL-10 mRNA; assay: IL-10 mRNA expression in RAW264.7 MØ (RT-PCR)
# Chain of Mac-1 (P05555 17-1153): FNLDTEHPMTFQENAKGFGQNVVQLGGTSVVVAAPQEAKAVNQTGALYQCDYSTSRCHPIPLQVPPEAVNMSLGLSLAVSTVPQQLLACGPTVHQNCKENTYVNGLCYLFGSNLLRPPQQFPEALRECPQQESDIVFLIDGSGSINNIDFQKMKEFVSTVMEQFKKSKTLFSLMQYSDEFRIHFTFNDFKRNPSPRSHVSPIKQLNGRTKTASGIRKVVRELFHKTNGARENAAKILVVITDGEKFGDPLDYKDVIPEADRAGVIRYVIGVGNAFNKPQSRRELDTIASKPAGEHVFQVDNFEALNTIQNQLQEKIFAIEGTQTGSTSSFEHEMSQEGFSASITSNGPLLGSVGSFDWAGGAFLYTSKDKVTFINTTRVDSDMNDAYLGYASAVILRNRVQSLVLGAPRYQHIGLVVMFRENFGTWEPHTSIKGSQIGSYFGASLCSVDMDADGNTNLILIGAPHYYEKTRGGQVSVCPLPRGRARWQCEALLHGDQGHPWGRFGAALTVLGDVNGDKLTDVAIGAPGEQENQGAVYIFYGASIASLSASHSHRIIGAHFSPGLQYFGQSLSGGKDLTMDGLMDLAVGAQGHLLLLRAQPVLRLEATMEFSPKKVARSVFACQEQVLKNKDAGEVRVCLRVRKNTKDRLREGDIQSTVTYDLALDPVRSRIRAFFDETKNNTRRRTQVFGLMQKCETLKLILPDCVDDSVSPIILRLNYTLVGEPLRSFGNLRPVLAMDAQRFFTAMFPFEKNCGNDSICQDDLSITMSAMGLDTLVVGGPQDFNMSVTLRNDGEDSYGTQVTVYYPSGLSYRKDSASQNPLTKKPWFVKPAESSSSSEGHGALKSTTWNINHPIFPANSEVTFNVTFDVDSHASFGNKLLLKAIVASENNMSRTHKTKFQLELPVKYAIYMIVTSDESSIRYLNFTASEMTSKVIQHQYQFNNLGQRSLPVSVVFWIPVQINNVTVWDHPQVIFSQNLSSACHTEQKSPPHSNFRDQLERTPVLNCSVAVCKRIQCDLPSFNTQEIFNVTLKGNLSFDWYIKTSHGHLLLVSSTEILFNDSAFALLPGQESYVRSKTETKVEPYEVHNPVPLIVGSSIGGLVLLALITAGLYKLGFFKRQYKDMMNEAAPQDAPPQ
substance,measurement,setting,value
methyl-β-cyclodextrin [MBCD],"% positive cells in M1, Mac-1",[1],81%
same,"MFI, Mac-1",[1],36
same,"MFI, TLR4",[2],23
same,"% positive cells in M1, FcγR",[3],65%
same,"MFI, FcγR",[3]; 2nd antibody control 7.0,14
same,CpG-ODN-induced COX-2 expression or PGE2 release,[4]; 1 mM MBCD,did not enhance
same,"COX-2 expression, MBCD alone",[4]; 5 mM MBCD,induced
same,PGE2 release vs MØ treated with saline,[4]; 5 mM MBCD,not different
same,increase in TNF-α production in response to chitin particles,[5]; 20 μg/ml chitin particles,3 fold
same,increase in TNF-α production in response to chitin particles,[5]; 100 μg/ml chitin particles,1.8 fold
same,"TNF-α production, MBCD alone",[5]; 5 mM MBCD,enhanced slightly but significantly
same,"% positive cells in M1, SR-A",[6],81%
same,"MFI, SR-A",[6]; 2nd antibody control 7.0,32
same,effect of MBCD treatment on MØ binding to FITC-chitin particles,[7],not significantly altered
same,"relative amounts of chitin-associated phosphorylated MAPK, MBCD- vs saline-treated cells (FIG. 14)",[8],greater
same,"% positive cells in M1, F4/80",[9],69%
same,"MFI, F4/80",[9]; 2nd antibody control 7.0,17
same,"MFI, MR",[10],73
same,CpG-ODN-induced IL-10 mRNA after MBCD treatment,[11],not increased
same,chitin particle-induced IL-10 mRNA expression after MBCD treatment,[11]; 6 h,did not result in IL-10 mRNA expression
